Results on 2 compounds are retold here after paper doi:10.1101/2022.11.22.517505v1 (biorxiv, 2022).

By IC50 is commonly meant the point on the concentration scale where inhibition reaches its midpoint. Higher therefore signals weaker potency in that assay. What is called inhibition is the relative decrease from the control value, in per cent. By EC50 is commonly meant the concentration giving half of the maximal effect. A high value points to weaker potency.

For test [1], the target named is T1, GSK3A (Homo sapiens, UniProt P49840). Briefly: HotSpot radiometric […]-ATP kinase assay. It counts as biochemical. The conditions noted are these: remaining activity, mean of two replicates.
Target sequence in this assay (P49840 2-483): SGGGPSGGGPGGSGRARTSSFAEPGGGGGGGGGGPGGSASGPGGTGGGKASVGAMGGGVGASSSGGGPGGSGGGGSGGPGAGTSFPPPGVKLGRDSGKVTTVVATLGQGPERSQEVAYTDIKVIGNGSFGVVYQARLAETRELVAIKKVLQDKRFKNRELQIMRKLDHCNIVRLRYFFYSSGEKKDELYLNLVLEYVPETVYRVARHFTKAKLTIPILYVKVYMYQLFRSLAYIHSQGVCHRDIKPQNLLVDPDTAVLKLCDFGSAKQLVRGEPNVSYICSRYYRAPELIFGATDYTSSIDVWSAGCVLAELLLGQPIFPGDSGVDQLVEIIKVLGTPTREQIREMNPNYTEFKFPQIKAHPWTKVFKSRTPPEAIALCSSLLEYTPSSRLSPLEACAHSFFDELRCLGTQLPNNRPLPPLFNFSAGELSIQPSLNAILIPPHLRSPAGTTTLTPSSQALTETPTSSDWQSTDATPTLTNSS
Test [2] has as its target CSNK1E (Homo sapiens, UniProt P49674). The experiment in a line: biochemical. The conditions noted are these: read-out: % of control remaining.
For test [3], the target named is T2, PLK2 (Homo sapiens, UniProt Q9NYY3). Briefly: HotSpot radiometric […]-ATP kinase assay. It counts as biochemical. The conditions noted are these: remaining activity, mean of two replicates.
The target in test [4] is T3, GSK3B (Homo sapiens, UniProt P49841). Briefly: HotSpot radiometric […]-ATP kinase assay. It counts as biochemical. The conditions noted are these: remaining activity, mean of two replicates.
The target in test [5] is T2, PLK2. The experiment in a line: biochemical. The note with it: read-out: % of control remaining.
The target of test [6] is T2, PLK2. Briefly: HotSpot radiometric […]-ATP kinase assay. It counts as biochemical.
Test [7] concerns the target PARP1 (Homo sapiens, UniProt P09874). The experiment in a line: BPS PARP assay kit, biotin-NAD+ luminescence. The note with it: read-out: % inhibition at 10 μM. It counts as biochemical.
Test [8] concerns the target T1, GSK3A. The experiment in a line: HotSpot radiometric […]-ATP kinase assay. It counts as biochemical.
Target sequence in this assay (P49840 2-483): as above
For test [9], the target named is T1, GSK3A. Briefly: biochemical. The note with it: read-out: % of control remaining.
Target sequence in this assay (P49840 whole entry): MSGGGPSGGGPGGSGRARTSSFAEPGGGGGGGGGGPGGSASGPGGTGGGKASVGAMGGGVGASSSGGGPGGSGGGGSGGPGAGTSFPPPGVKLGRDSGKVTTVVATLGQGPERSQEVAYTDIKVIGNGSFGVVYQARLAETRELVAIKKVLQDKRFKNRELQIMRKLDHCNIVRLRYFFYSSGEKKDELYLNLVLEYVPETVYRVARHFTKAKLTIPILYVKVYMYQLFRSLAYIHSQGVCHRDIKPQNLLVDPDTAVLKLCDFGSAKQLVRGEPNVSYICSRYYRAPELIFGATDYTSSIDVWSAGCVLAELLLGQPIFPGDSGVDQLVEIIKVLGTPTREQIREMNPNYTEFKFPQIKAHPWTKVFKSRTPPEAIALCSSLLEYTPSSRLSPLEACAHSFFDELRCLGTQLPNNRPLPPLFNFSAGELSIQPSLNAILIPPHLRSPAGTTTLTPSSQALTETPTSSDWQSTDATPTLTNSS
Test [10] has as its target T3, GSK3B. Briefly: HotSpot radiometric […]-ATP kinase assay. It counts as biochemical.
The target in test [11] is PLK2 (NanoLuc fusion, HEK293 cells) (Homo sapiens, UniProt Q9NYY3). Briefly: NanoBRET target engagement, tracer displacement, intact cells. It counts as cell-based. (In general: In BRET a luciferase serves as donor, and the signal depends on an acceptor being close.)
The target in test [12] is GSK3A (NanoLuc fusion, HEK293 cells) (Homo sapiens, UniProt P49840). The test is described as above. It counts as cell-based.
The target in test [13] is T3, GSK3B. The experiment in a line: biochemical. The conditions noted are these: read-out: % of control remaining.
For test [14], the target named is PARP2 (Homo sapiens, UniProt Q9UGN5). Briefly: BPS PARP assay kit, biotin-NAD+ luminescence. The note with it: read-out: % inhibition at 10 μM. It counts as biochemical.
PARP2, sequence (Q9UGN5 whole entry): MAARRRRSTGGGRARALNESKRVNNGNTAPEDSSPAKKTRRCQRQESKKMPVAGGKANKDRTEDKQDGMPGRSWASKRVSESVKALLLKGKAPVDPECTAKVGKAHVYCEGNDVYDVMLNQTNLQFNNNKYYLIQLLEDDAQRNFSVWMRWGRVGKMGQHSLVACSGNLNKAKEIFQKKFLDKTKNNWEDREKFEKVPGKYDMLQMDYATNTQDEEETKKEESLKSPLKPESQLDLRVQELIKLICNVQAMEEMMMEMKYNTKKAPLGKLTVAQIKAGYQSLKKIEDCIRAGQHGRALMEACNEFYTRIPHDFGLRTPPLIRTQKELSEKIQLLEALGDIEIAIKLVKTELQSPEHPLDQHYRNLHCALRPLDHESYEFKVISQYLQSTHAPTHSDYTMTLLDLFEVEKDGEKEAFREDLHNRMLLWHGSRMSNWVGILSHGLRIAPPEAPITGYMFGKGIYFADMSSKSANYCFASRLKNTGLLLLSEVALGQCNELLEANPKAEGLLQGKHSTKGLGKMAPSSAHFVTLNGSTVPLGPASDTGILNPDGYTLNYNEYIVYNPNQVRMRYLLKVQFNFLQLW

T3 sequence (P49841 whole entry): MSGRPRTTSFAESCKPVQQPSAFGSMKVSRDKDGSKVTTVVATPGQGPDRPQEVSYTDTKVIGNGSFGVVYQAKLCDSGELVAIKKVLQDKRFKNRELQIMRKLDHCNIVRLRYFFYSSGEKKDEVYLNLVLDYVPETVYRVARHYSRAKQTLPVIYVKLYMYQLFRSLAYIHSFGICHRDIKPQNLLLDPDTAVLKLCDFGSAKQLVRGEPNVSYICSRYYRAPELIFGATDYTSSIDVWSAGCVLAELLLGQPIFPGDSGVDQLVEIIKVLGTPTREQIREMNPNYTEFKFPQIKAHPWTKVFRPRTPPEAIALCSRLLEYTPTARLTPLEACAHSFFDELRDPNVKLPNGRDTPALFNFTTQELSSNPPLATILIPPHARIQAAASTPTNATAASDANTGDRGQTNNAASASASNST
T2 sequence (Q9NYY3 whole entry): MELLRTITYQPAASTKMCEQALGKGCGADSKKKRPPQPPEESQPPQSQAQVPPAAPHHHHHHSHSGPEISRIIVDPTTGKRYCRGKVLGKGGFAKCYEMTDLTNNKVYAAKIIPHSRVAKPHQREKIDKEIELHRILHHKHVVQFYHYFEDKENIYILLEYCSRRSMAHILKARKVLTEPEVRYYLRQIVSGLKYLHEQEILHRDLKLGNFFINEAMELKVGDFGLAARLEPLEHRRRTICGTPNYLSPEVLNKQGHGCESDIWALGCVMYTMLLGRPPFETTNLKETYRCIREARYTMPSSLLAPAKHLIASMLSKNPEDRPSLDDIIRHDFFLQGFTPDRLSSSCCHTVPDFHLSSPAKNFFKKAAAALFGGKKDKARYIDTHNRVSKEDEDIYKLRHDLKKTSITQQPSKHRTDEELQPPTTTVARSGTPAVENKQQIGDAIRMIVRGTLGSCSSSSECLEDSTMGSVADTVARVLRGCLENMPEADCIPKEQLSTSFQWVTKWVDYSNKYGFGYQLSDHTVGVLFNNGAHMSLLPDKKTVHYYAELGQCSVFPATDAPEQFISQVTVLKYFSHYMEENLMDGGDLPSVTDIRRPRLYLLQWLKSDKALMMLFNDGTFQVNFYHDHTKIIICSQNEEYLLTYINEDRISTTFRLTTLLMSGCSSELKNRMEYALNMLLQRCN
CSNK1E, sequence (P49674 whole entry): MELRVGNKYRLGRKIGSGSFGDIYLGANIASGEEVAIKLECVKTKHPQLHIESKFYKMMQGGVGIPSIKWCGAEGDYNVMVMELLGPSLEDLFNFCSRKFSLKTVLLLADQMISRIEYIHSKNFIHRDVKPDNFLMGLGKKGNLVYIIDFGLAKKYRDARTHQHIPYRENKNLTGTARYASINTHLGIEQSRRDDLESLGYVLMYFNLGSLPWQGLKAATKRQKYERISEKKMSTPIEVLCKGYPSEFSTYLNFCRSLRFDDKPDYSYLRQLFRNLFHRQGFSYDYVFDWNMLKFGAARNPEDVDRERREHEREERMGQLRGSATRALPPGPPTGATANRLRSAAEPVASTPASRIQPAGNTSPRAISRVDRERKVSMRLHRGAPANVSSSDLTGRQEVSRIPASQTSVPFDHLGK
GSK3A (NanoLuc fusion, HEK293 cells), sequence (P49840 2-483): as the sequence (P49840 2-483) above
PLK2 (NanoLuc fusion, HEK293 cells), sequence (Q9NYY3 whole entry, the tested form may be a part): as the sequence (Q9NYY3 whole entry) above
PARP1, sequence (P09874 2-1014): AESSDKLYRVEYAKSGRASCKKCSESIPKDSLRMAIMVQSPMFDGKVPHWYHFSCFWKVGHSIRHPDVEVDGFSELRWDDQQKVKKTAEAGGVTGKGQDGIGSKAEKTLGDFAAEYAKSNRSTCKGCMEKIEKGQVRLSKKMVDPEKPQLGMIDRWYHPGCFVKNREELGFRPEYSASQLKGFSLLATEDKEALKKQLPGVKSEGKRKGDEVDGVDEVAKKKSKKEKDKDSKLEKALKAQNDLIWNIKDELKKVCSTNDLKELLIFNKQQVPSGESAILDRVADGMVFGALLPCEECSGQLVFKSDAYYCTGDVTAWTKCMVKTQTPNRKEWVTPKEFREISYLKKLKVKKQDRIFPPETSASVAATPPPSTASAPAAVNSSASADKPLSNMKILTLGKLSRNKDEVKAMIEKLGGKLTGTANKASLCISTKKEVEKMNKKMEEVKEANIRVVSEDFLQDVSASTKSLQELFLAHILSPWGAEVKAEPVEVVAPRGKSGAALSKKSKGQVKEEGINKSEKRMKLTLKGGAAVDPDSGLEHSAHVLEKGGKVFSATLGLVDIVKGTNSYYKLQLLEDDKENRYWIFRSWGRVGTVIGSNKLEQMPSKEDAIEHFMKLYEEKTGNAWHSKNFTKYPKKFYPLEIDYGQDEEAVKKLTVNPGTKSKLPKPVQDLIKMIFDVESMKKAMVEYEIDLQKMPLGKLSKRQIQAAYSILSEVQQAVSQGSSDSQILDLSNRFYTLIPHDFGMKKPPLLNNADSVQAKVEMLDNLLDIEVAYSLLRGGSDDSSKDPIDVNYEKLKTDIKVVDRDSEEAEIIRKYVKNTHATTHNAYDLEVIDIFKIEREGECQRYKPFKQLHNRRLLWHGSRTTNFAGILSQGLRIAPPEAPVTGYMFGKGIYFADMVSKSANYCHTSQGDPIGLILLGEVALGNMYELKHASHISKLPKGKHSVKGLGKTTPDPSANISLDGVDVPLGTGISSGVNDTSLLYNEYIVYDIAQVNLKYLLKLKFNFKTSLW

With `CNCc1ccc(-c2[nH]c3cc(F)cc4c3c2CCNC4=O)cc1` [rucaparib], the “Enzyme activity (%) at 1 μM” value in test [1] was determined as 74.15%; in test [3], 88.95%; in [4] it was 35.38%. Further, the remaining activity at 1 µM in test [2] came out at 103%.
Consider `O=C(O)c1ccc(-c2[nH]c3cc(F)cc4c3c2CCNC4=O)cc1` [M324], for which the remaining activity at 1 µM was determined as 102% in test [2], 40.7% in test [5], 34.4% in test [9] and 63.1% in test [13]. Also, the IC50 turned out to be 591 nM in test [6], 579 nM in test [8] and 2000 nM in [10]. For the same compound, the inhibition at 10 µM in [7] and in test [14] was 100% each time. In addition, the figures for the concentration for a half-maximal effect (EC50) in test [11] and in [12] were 5080 nM and 15000 nM, respectively.
